Data published in US20250134889A1, “TARGETING IRE1 KINASE AND FMRP FOR PROPHYLAXIS, MANAGEMENT AND TREATMENT OF ATHEROSCLEROSIS” (CEDARS-SINAI MEDICAL CENTER, priority 2022, published 2025).

Columns and labels:
[1] = target: T1, human IRE1-kinase/RNase domains (amino acids 468-977) (Homo sapiens, UniProt O75460); assay: Kinase reaction with purified recombinant IRE1 and FMRP; assay type: biochemical; settings: purified proteins, ATP-γ-S
T1 construct: recombinant human IRE1-kinase/RNase domains (amino acids 468-977); purchased Biotech (so in the source) E31-11G
T1 sequence (O75460 468-977): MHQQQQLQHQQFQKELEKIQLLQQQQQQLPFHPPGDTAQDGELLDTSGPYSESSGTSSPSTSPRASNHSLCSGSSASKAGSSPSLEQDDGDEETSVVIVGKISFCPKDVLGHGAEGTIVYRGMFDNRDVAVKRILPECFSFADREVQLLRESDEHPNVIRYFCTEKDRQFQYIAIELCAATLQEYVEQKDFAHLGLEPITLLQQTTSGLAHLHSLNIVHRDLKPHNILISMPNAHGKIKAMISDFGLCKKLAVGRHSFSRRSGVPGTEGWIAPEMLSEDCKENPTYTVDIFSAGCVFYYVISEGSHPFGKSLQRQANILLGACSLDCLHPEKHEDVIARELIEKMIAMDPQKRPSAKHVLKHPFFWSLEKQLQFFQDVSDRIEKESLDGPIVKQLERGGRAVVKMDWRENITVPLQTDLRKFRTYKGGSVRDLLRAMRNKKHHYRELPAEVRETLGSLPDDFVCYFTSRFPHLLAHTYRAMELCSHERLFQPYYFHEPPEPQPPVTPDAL

[2] = tested on: peritoneal macrophages; assay: In vivo foam cell formation assay; set-up: species or system mouse; settings: Apoe-/- mice, WD 12 weeks, 30 mg/kg/day in the last 4 weeks, ORO staining
Method: (§1) FIGS. 2A-2M depict that FMRP deficiency enhances RCT while reducing foam cell formation in vivo. (Data are mean±SEM. Unpaired t-test with Welch's correction. * P≤0.05, ** P≤0.01, *** P≤0.001.) • 2A. Fmr1^+/+ and Fmr1^−/− mice were injected with AAV_PCSK9 and fed with 16 weeks of WD. Residential PM were stained with Oil Red O (ORO) and imaged (n=7; Scale bar=50 μm). • 2B. Apoe-/mice were fed with WD (12 weeks) and injected with vehicle (DMSO) or AMG-18 (30 mg/kg/day) in the last 4 weeks of WD. Residential PM were stained with ORO and imaged (n=5; Scale bar=50 μm). • 2C-2E. […] Macrophages were pre-loaded with fluorescently labeled cholesterol (16 hours) followed by incubation in efflux medium including APOA1 (25 μg/ml) or HDL (50 μg/ml) as acceptors for 6 hours. % Efflux was calculated as cholesterol signal in medium/cholesterol signal in medium and cell: Cholesterol efflux in (2F) Fmr1+/+ and Fmr1^−/− BMDM (n=4) and in (2G) BMDM that were pre-treated either with DMSO or AMG-18 (5 μM; 1 hour) (n=4). • 2H-2K. […] Protein lysates from macrophages used in FIG. 2C were analyzed by western blotting using specific antibodies for FMRP and β-Actin. • 2M. […]

[3] = tested on: BMDM; assay: Cholesterol efflux assay; assay type: cell-based, mouse; settings: AMG-18 5 μM 1 hour pre-treatment; APOA1 25 μg/ml or HDL 50 μg/ml acceptors, 6 hours
Method: as §1

## Cc1ccc2c(NS(=O)(=O)c3ccccc3Cl)cccc2c1Oc1ncccc1-c1ccnc(N[C@H]2CCCNC2)n1 [AMG-18]
[1]
  FMRP phosphorylation in kinase reaction: AMG-18-sensitive
  IRE1 phosphorylation in kinase reaction: AMG-18-sensitive
[2]
  foam cell formation in the peritoneum: reduced
[3]
  cholesterol efflux: enhanced
